The source of these data is ChEMBL document CHEMBL1201862, “PubChem BioAssay data set” (2004).

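Assay format: 96-well plates, 48-hour exposure. GI50 = concentration required for 50% inhibition of growth.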 Calls of active or inactive are those of the source. No stated cut-off is given here; in the data, active = GI50 up to about 1.1 µM and inactive = higher.

Holding throughout (assay): NCI anticancer screen, dose series, 48 h
The test system of experiment [1] is MDA-MB-231.
For experiment [2], the system named is T47D.
For experiment [3], the system named is IGROV-1.
Experiment [4] relates to SN12C.
Experiment [5] deals with SF-539.
For experiment [6], the system named is SK-MEL-28.
Experiment [7] deals with HCT-15.
Experiment [8] concerns ACHN.
For experiment [9], the system named is TK-10.
Experiment [10] concerns MDA-MB-435.
For experiment [11], the system named is COLO 205.
Experiment [12] relates to NCI-H226.
Experiment [13] has as its system CAKI-1.
Experiment [14] has as its system MCF7.
Experiment [15] concerns HL-60.
For experiment [16], the system named is NCI-H460.
For experiment [17], the system named is OVCAR-8.
Experiment [18] relates to NCI-H522.
For experiment [19], the system named is SK-OV-3.
Experiment [20] deals with LOX IMVI.

Regarding `NNc1nnc(-c2nnc(NN)o2)o1`, the GI50 in [1], in [2], in [3], in [4], in experiment [5] and in [6] was > 10 µM (inactive) throughout. In addition, the GI50 is over 10 µM in experiment [7]; > 10 µM (inactive) in [8]; > 10 µM (inactive) in experiment [9]; > 10 µM (inactive) in experiment [10]; > 10 µM (inactive) in [11]; > 10 µM (inactive) in experiment [12]. For the same compound, the GI50 in [13], in [14], in experiment [15], in experiment [16] and in [17] was > 10 µM (inactive) each time.

In the case of `CC1CCCN(CC(O)CN2CCCc3ccccc32)C1` (stereo not drawn), the GI50 in [1] is > 100 µM (inactive); in experiment [2], > 100 µM (inactive); in experiment [18], 64.4 µM (inactive); in [3] it was > 100 µM (inactive); in [4], > 100 µM (inactive); in experiment [6], > 100 µM (inactive). Moreover, the GI50 in [7] is over 100 µM; in [8], > 100 µM (inactive); in experiment [19], > 100 µM (inactive); in experiment [9] it was > 100 µM (inactive); in [10], > 100 µM (inactive); in [11] it was > 100 µM (inactive). Also, the GI50 was > 100 µM (inactive) in experiment [12]; > 100 µM (inactive) in experiment [13]; > 100 µM (inactive) in experiment [14]; 8.02 µM (inactive) in [15]; > 100 µM (inactive) in experiment [20]; > 100 µM (inactive) in [17].

With `COc1ccc(C2(O)C(S(=O)(=O)c3ccc(C)cc3)=Cc3ccc(OC)cc32)cc1` (stereo not drawn), the GI50 is > 100 µM (inactive) in [1]; 69.5 µM (inactive) in experiment [2]; 39.9 µM (inactive) in [18]; > 100 µM (inactive) in experiment [3]; 73.8 µM (inactive) in [4]; 43.5 µM (inactive) in [5]. Further, the GI50 is 32.7 µM (inactive) in experiment [6]; over 100 µM in experiment [7]; 37.4 µM (inactive) in experiment [8]; 35.6 µM (inactive) in [19]; 46.5 µM (inactive) in experiment [9]; > 100 µM (inactive) in experiment [10]. Besides, the GI50 in experiment [11] was > 100 µM (inactive); in experiment [12], > 100 µM (inactive); in experiment [14] it was 35 µM (inactive); in [15], 22 µM (inactive); in experiment [20], > 100 µM (inactive); in experiment [16], > 100 µM (inactive). Also, in [17], the GI50 was 44.3 µM (inactive).

For `CCOC(=O)CCCN`, the GI50 in experiment [1], in experiment [2], in experiment [18], in experiment [3], in [4] and in [6] was > 100 µM (inactive) in each case. Also, the GI50 is over 100 µM in experiment [7]; > 100 µM (inactive) in experiment [8]; > 100 µM (inactive) in [19]; > 100 µM (inactive) in experiment [9]; > 100 µM (inactive) in experiment [10]; > 100 µM (inactive) in experiment [11]. The GI50 in [12], in experiment [13], in [14], in [15], in experiment [20] and in experiment [16] was > 100 µM (inactive) each time. For the same compound, the GI50 in [17] is > 100 µM (inactive).
